These results are taken from patent US12227482B2, “Compounds and compositions for the treatment of cancer” (The Regents of the University of California, priority 2016, dated 2025).

Holding throughout (assay type): cell-based
One test has as its system LOX cells. The test can be described thus: Cell viability (CellTiter-Glo ATP content) in LOX cells. The conditions noted are these: LOX, 72 h, 72 hours treatment, cell survival by CellTiter-Glo, 2% fetal bovine serum. A digest of the protocol:
(§1)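 Cells plated at 5,000 per well in antibiotic-free RPMI with 2% FBS, treated next day in triplicate with increasing compound doses (final DMSO 0.5%) for 72 hours. Viability read as ATP content by CellTiter-Glo luminescence; percent survival relative to vehicle control set as 100%.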

The next test relates to MelJuSo cells. The test can be described thus: Cell viability (CellTiter-Glo ATP content) in MelJuSo cells. The conditions noted are these: Homo sapiens, MEL-JUSO, 72 hours treatment, cell survival by CellTiter-Glo, 2% fetal bovine serum. In outline: as §1
Another test deals with A549 cells. The test can be described thus: Cell viability (CellTiter-Glo ATP content) in A549 cells. The note with it: Homo sapiens, A549, 72 h, 72 hours treatment, cell survival by CellTiter-Glo, 2% fetal bovine serum. A digest of the protocol: as §1

The structures appear in SMILES notation.

With `CCCCC1C(c2ccc(F)cc2)=NN(c2ccc(F)cc2)C1(C)C(=O)NCCCOC` (stereo not drawn) [Compound 14, 4-butyl-1,3-bis(4-fluorophenyl)-N-(3-methoxypropyl)-5-methyl-4,5-dihydro-1H-pyrazole-5-carboxamide], the results for the IC50 in the test with LOX cells, with MelJuSo cells and with A549 cells were 1 to 2 µM, 1 to 2 µM and more than 2 µM, respectively.
Regarding `CC(C)(CO)CCCNC(=O)C1(C)C(c2ccncc2)C(c2ccc(F)cc2)=NN1c1ccccc1` (stereo not drawn) [Compound 21, 3-(4-fluorophenyl)-N-(5-hydroxy-4,4-dimethylpentyl)-5-methyl-1-phenyl-4-(pyridin-4-yl)-4,5-dihydro-1H-pyrazole-5-carboxamide], the IC50 with LOX cells, with MelJuSo cells and in the test on A549 cells was more than 2 µM each time.
For `CCCCC1C(c2ccc(F)cc2)=NN(c2ccccc2)C1(C)C(=O)NCc1cccs1` (stereo not drawn) [Compound 67, 4-butyl-3-(4-fluorophenyl)-5-methyl-1-phenyl-N-(thiophen-2-ylmethyl)-4,5-dihydro-1H-pyrazole-5-carboxamide], the IC50 with LOX cells, with MelJuSo cells and in the test on A549 cells was more than 2 µM each time.
As to `COCCNC(=O)C1(C)C(c2ccsc2)C(c2ccc(F)cc2F)=NN1c1ccc(F)cc1F` (stereo not drawn) [Compound 118, 1,3-bis(2,4-difluorophenyl)-N-(2-methoxyethyl)-5-methyl-4-(thiophen-3-yl)-4,5-dihydro-1H-pyrazole-5-carboxamide], the 50% inhibitory concentration (IC50) in the test on LOX cells, in the test with MelJuSo cells and with A549 cells was less than 0.25 µM throughout.
`CCCCC1C(c2ccc(F)cc2)=NN(c2ccc(C)cc2)C1(C)C(=O)NCCCOC` (stereo not drawn) [Compound 16, 4-butyl-3-(4-fluorophenyl)-N-(3-methoxypropyl)-5-methyl-1-p-tolyl-4,5-dihydro-1H-pyrazole-5-carboxamide]: the IC50 was more than 2 µM with LOX cells, 0.5 to 1 µM in the test with MelJuSo cells and more than 2 µM in the test with A549 cells.
In the case of `CCCCC1C(c2ccc(F)cc2F)=NN(c2ccccc2)C1(C)C(=O)NCCCC(C)(C)CO` (stereo not drawn) [Compound 56, 4-butyl-3-(2,4-difluorophenyl)-N-(5-hydroxy-4,4-dimethylpentyl)-5-methyl-1-phenyl-4,5-dihydro-1H-pyrazole-5-carboxamide], the IC50 in the test with LOX cells was 1 to 2 µM; in the test with MelJuSo cells it was 0.5 to 1 µM; in the test on A549 cells, more than 2 µM.
As for `CCCCC1C(c2ccc(F)c(F)c2)=NN(c2ccccc2)C1(C)C(=O)NCCCCC(C)(C)O` (stereo not drawn) [Compound 10, 4-butyl-3-(3,4-difluorophenyl)-N-(5-hydroxy-5-methylhexyl)-5-methyl-1-phenyl-4,5-dihydro-1H-pyrazole-5-carboxamide], the IC50 with LOX cells is 1 to 2 µM; in the test on MelJuSo cells it was 0.5 to 1 µM; in the test with A549 cells, more than 2 µM.
The matching figures for `CCCCC1C(c2c(F)cc(F)cc2F)=NN(c2ccc(F)cc2F)C1(C)C(=O)NCCCC(C)(C)CO` (stereo not drawn) [Compound 97, 4-butyl-1-(2,4-difluorophenyl)-N-(5-hydroxy-4,4-dimethylpentyl)-5-methyl-3-(2,4,6-trifluorophenyl)-4,5-dihydro-1H-pyrazole-5-carboxamide]: 1 to 2 µM, 0.5 to 1 µM and more than 2 µM.
In the case of `CC(C)(CO)CCCNC(=O)C1(C)C(c2ccsc2)C(c2ccc(F)cc2)=NN1c1ccc(F)cc1F` (stereo not drawn) [Compound 85, 1-(2,4-difluorophenyl)-3-(4-fluorophenyl)-N-(5-hydroxy-4,4-dimethylpentyl)-5-methyl-4-(thiophen-3-yl)-4,5-dihydro-1H-pyrazole-5-carboxamide], the IC50 in the test on LOX cells is less than 0.25 µM; in the test on MelJuSo cells, less than 0.25 µM; in the test on A549 cells it was 0.25 to 0.5 µM.
`CCCCC1C(c2ccc(F)cc2)=NN(c2ccccc2)C1(C)C(=O)N(C)Cc1ccc(OC)c(OC)c1` (stereo not drawn) [Compound 47, 4-butyl-N-(3,4-dimethoxybenzyl)-3-(4-fluorophenyl)-N,5-dimethyl-1-phenyl-4,5-dihydro-1H-pyrazole-5-carboxamide]: the IC50 in the test with LOX cells, in the test on MelJuSo cells and in the test with A549 cells was more than 2 µM in each case.
Take `CCCCC1C(c2ccc(F)cc2)=NN(c2ccc(F)cc2F)C1(C)C(=O)NCCO` (stereo not drawn) [Compound 84, 4-butyl-1-(2,4-difluorophenyl)-3-(4-fluorophenyl)-N-(2-hydroxyethyl)-5-methyl-4,5-dihydro-1H-pyrazole-5-carboxamide]: the IC50 lay in the range of 1 to 2 µM in the test with LOX cells, 0.5 to 1 µM with MelJuSo cells and 1 to 2 µM with A549 cells.
Take `COCCNC(=O)C1(C)C(c2ccc(C)s2)C(c2ccc(F)cc2)=NN1c1ccc(F)cc1F` (stereo not drawn) [Compound 100, 1-(2,4-difluorophenyl)-3-(4-fluorophenyl)-N-(2-methoxyethyl)-5-methyl-4-(5-methylthiophen-2-yl)-4,5-dihydro-1H-pyrazole-5-carboxamide]: the IC50 in the test on LOX cells was 1 to 2 µM; in the test with MelJuSo cells, 0.25 to 0.5 µM; in the test on A549 cells, more than 2 µM.
The matching figures for `COCCNC(=O)C1(C)C(c2ccoc2)C(c2ccc(F)cc2F)=NN1c1ccc(F)cc1F` (stereo not drawn) [Compound 130, 1,3-bis(2,4-difluorophenyl)-4-(furan-3-yl)-N-(2-methoxyethyl)-5-methyl-4,5-dihydro-1H-pyrazole-5-carboxamide]: more than 2 µM, 0.5 to 1 µM and more than 2 µM.
The matching figures for `CCCCC1C(c2ccc(F)cc2)=NN(c2ccccc2)C1(C)C(=O)NCc1cc(Cl)cc(Cl)c1` (stereo not drawn) [Compound 41, 4-butyl-N-(3,5-dichlorobenzyl)-3-(4-fluorophenyl)-5-methyl-1-phenyl-4,5-dihydro-1H-pyrazole-5-carboxamide]: more than 2 µM, 1 to 2 µM and more than 2 µM.
The matching figures for `CCCCC1C(c2ccc(Cl)cc2F)=NN(c2ccccc2)C1(C)C(=O)NCCCC(C)(C)CO` (stereo not drawn) [Compound 53, 4-butyl-3-(4-chloro-2-fluorophenyl)-N-(5-hydroxy-4,4-dimethylpentyl)-5-methyl-1-phenyl-4,5-dihydro-1H-pyrazole-5-carboxamide]: more than 2 µM, more than 2 µM and more than 2 µM.
Regarding `CCCCC1C(c2ccc(F)cc2)=NN(c2cccc(Cl)c2)C1(C)C(=O)NCCCC(C)(C)CO` (stereo not drawn) [Compound 17, 4-butyl-1-(3-chlorophenyl)-3-(4-fluorophenyl)-N-(5-hydroxy-4,4-dimethylpentyl)-5-methyl-4,5-dihydro-1H-pyrazole-5-carboxamide], the results for the IC50 in the test with LOX cells, in the test with MelJuSo cells and with A549 cells were 1 to 2 µM, 0.25 to 0.5 µM and 1 to 2 µM, respectively.
For the compound `CCCCC1C(c2ccc(F)cc2)=NN(c2ccc(Cl)cc2F)C1(C)C(=O)NCCOC` (stereo not drawn) [Compound 64, 4-butyl-1-(4-chloro-2-fluorophenyl)-3-(4-fluorophenyl)-N-(2-methoxyethyl)-5-methyl-4,5-dihydro-1H-pyrazole-5-carboxamide], the IC50 was less than 0.25 µM with LOX cells, less than 0.25 µM with MelJuSo cells and 0.25 to 0.5 µM in the test with A549 cells.
Regarding `CCCCC1C(c2ccc(F)cc2)=NN(c2ccc(F)c(OC)c2)C1(C)C(=O)NCCCOC` (stereo not drawn) [Compound 19, 4-butyl-1-(4-fluoro-3-methoxyphenyl)-3-(4-fluorophenyl)-N-(3-methoxypropyl)-5-methyl-4,5-dihydro-1H-pyrazole-5-carboxamide], the IC50 with LOX cells, in the test with MelJuSo cells and with A549 cells was more than 2 µM in each case.

The IC50 is the concentration at which inhibition is half-maximal.
